Results on three molecules are retold here after patent publication US20230263782A1, “ORAL FORMULATIONS AND USES THEREOF” (INVENTISBIO CO., LTD., priority 2020, published 2023).

A short description of data set [1]: Solubility test in pH 1.2 or pH 6.8 buffer (saturated solutions, HPLC; remaining solids by XRPD). Format: physicochemical. Particulars: for Stability in buffer solution (HPLC): pH 1.2 buffer solution; for Solubility at 24 h / solubility at 30 min: room temperature; for XRPD patterns at 24 h: remaining solid. As to the method: For solubility test: About 20 mg of Compound FA, L-lysine salt and meglumine salt (Form I) were weighed into vials, added 3 mL of pH1.2 or pH 6.8 buffer to make saturated solutions. All suspensions were kept shaking with 200 rpm at room temperature for up to 24 hours. […] At 24 hours, remaining solids were collected and determined by XRPD.

Data set [2] is described as follows: Solid stability test at 40° C./75% RH for 8 days (HPLC, XRPD). Particulars: for Solid stability: 40° C./75% RH for 8 days, HPLC and XRPD; for Purity at 8 days / Purity at 0 day: HPLC; for Purity at 8 days: after 40° C./75% RH for 8 days; for Purity at 0 day: start of 40° C./75% RH storage. Format: physicochemical. As to the method:
HPLC ANALYSIS: a representative HPLC method is shown below, which can be used, for example, to analyze the purity, solubility, and stability of the salts herein.
For stability test: About 20 mg of Compound FA, L-lysine salt and meglumine salt (Form I) were weighed into vials, and put at the condition of 40° C./75% RH for 8 days. At 0 and 8 days, the solid sample was dissolved using acetonitrile/water (1/1) to make a solution with the concentration of 0.2 mg/mL. Sample solutions were analyzed by HPLC and solid samples were examined by XRPD.

Data set [3] is described as follows: Meglumine salt form interconversion study (slurry in IPA or water, XRPD). Type of data set: physicochemical. Particulars: Water. As to the method:
Interconversion study: Interconversion studies were carried out by mixing the same amount of different form solids in IPA or water, respectively. Suspensions were kept stirring at room temperature and 60° C. for several days, during which suspensions were filtrated and analyzed by XRPD.

Data set [4] in a line: Solid stability test of Form I at 25° C./92.5% RH for 10 days (XRPD). Format: physicochemical. The protocol:
Solid stability test of Form I at 92.5% RH for 10 days: About 20 mg of meglumine salt Form I was put into the condition of 25° C./92.5% RH for 10 days. At 10 days, the sample was analyzed by XRPD.

A short description of data set [5]: Physical treatment (grinding) of Form I. Format: physicochemical. Conditions: grinded for 2 min and 5 min. As to the method:
Physical treatment of Form I: Form I of meglumine salt was grinded for 2 min and 5 min. After grinding, the crystallinity declined, but the crystal form was still Form I.

Data set [6] can be described thus: Solubility in water (statement). Format: physicochemical.
A short description of data set [7]: Dynamic moisture sorption analysis (DVS), XRPD before and after. Conditions: FIG. 5A. Type of data set: physicochemical. As to the method:
Dynamic moisture sorption analysis (DVS): DVS was determined using IGAsorp (Hiden Isochema, UK). The sample was tested at a targeted RH (relative humidity) of 10 to 90% full cycle in step mode. The analysis was performed in 10% RH increments.

The test system of a further data set is ER+ breast cancer cells. Particulars: as discussed in WO2017/136688; cited from earlier work.
For data set [8] the following is noted: compared with fulvestrant, GDC-0810 and AZD9496; WO2017/136688; cited from earlier work.
In a further data set the target is T1, ER (Homo sapiens, UniProt P03372).
T1 sequence (P03372 1-595): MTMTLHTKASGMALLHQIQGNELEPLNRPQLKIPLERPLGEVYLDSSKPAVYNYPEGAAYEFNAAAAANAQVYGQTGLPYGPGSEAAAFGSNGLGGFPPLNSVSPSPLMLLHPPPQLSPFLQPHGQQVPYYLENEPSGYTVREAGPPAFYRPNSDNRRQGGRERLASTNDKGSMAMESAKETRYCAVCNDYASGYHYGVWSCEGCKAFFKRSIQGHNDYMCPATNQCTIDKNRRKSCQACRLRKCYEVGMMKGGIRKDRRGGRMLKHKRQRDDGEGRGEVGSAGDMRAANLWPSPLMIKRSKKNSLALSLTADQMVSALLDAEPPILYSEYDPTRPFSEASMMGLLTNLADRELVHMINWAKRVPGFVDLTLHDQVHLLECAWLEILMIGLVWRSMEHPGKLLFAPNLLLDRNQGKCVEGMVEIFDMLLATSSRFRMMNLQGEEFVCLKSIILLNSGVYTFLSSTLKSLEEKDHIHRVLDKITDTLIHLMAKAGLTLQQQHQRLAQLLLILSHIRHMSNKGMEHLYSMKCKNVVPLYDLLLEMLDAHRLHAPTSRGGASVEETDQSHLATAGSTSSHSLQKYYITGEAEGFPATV
Conditions: clinical samples, intramuscular injection monthly; cited from earlier work.

The mark [9] stands for this setting: pH 1.2 buffer, calculated with the sum of impurities and major peak area.

SMILES strings stand for the structures. ≈ marks a conversion by molar mass, not a printed value. Where a name gives a salt, the structure may show the parent alone. Read-outs that look alike come from different tables or passages of the source.

One may read the Solubility as the concentration that dissolves in the medium under given conditions. One may read the solubility as the concentration that dissolves in the medium under given conditions. For the molecule `C[C@@H]1Cc2c([nH]c3ccccc23)[C@@H](c2c(Cl)cc(/C=C/C(=O)O)cc2Cl)N1CC(C)(C)F` [Meglumine salt, meglumine (E)-3-(3,5-dichloro-4-((1R,3R)-2-(2-fluoro-2-methylpropyl)-3-methyl-2,3,4,9-tetrahydro-1H-pyrido[3,4-b]indol-1-yl)phenyl acrylate], in [1], the “Stability in buffer solution (HPLC)” value is “unstable”. Moreover, in data set [1] (setting [9]), the “Solubility at 24 h” value was 1612 µg/mL and the “solubility at 30 min” value is 296 µg/mL. Moreover, in [1] (pH 6.8 buffer, pH 6.8, aqueous buffer, thermodynamic from solid, pH 6.8 buffer, read-out: Solubility at 30 min), the solubility at 30 min was 20 µg/mL. Also, in data set [1] (pH 6.8 buffer), the “Solubility at 24 h” value stood at 17 µg/mL and the “XRPD patterns at 24 h” value is given as “Low crystallinity”. For the same molecule, the “XRPD patterns at 24 h” value in data set [1] (pH 1.2 buffer) was “No change”. In data set [2], the Solid stability result was “physically and chemically stable”; the “Purity at 8 days” value is recorded as 99.66 Area %; the “Purity at 0 day” value came to 99.68 Area %. Moreover, in data set [3] (25° C.), the Final crystal form entry was “Dihydrate”. Also, the Final crystal form result in [3] (60° C.) is on record as “Form I”. The “Crystal form after storage (XRPD)” value in [4] is reported as “remained unchanged”. For the same molecule, the “Crystal form after grinding” value in [5] was “still Form I”.
Regarding `C[C@@H]1Cc2c([nH]c3ccccc23)[C@@H](c2c(Cl)cc(/C=C/C(=O)O)cc2Cl)N1CC(C)(C)F` [Compound FA, (E)-3-(3,5-dichloro-4-((1R,3R)-2-(2-fluoro-2-methylpropyl)-3-methyl-2,3,4,9-tetrahydro-1H-pyrido[3,4-b]indol-1-yl)phenyl)acrylic acid], the “Stability in buffer solution (HPLC)” value in data set [1] was “unstable”. Besides, in data set [1] (pH 1.2 buffer, pH 1.2, simulated gastric fluid, thermodynamic from solid, pH 1.2 buffer, calculated with the sum of impurities and major peak area, read-out: Solubility at 30 min), the solubility at 30 min was 571 µg/mL (≈ 1200 µM). The “Solubility at 24 h” value in data set [1] (setting [9]) is 267 µg/mL (≈ 562 µM). In addition, in [1] (pH 6.8 buffer), the “Solubility at 24 h” value is 3 µg/mL (≈ 6.31 µM), the “solubility at 30 min” value came out at 14 µg/mL (≈ 29.4 µM) and the “XRPD patterns at 24 h” value is given as “Low crystallinity”. Further, the “XRPD patterns at 24 h” value in [1] (pH 1.2 buffer) was “Low crystallinity”. Moreover, in [2], the Solid stability entry was “physically and chemically stable”; the “Purity at 8 days” value came to 96.31 Area %; the “Purity at 0 day” value amounted to 98.02 Area %. For the same molecule, in data set [6], the Solubility in water entry is on record as “practically insoluble in water”. Further, the “Solid form before and after DVS studies (XRPD)” value in data set [7] is “did not change”. Further, in the data set on ER+ breast cancer cells, the “growth of ER+ breast cancer cells” value was “inhibited the growth of ER+ breast cancer cells”. In addition, in [8], the human hepatocyte clearance entry was “better human hepatocyte clearance”.
As to `C[C@]12CC[C@@H]3c4ccc(O)cc4C[C@@H](CCCCCCCCC[S+]([O-])CCCC(F)(F)C(F)(F)F)[C@H]3[C@@H]1CC[C@@H]2O` (some centres unmarked) [fulvestrant], at ER, the ER degradation is given as about 50%.
